Data reported in US20220306986A1, “NON-INVASIVE METHODS FOR SELECTIVELY ENRICHING PLURIPOTENT CELLS” (MEMORIAL SLOAN-KETTERING CANCER CENTER, priority 2019, published 2022).

Legend:
Type in all cases: cell-based, mouse
ESCs [1] = assay: Colony formation assay (alkaline phosphatase staining) after pulse treatment
Procedure: For transient glutamine withdrawal (“pulse”) experiments, cells were initially plated in standard S/L medium as described above. The following day, cells were washed with PBS and then changed to experimental medium containing a 1:1 mix of glutamine-free DMEM and glutamine-free Neurobasal medium including 10% dialyzed FBS, 2-mercaptoethanol, LIF, and containing (“Ctrl”) or lacking (“Pulse”) L-glutamine as indicated. 24 hours later, cells were washed with PBS and then returned to glutamine-replete medium (“Recover”). 24 hours later, cells were subjected to either image analysis, flow cytometry, or plated for colony formation assays as indicated. For glutamine pulse experiments in human ESCs, cells were initially plated at a density of 300,000 cells/well in a tissue-culture treated polystyrene 12-well plate coated with vitronectin (Thermo Fisher Scientific, A14700) in E8 medium (Thermo Fisher Scientific, A1517001) containing 10 uM ROCK inhibitor Y-27632 (Selleck Chemicals S1049). 24 hrs after plating, medium was changed to modified E8 medium containing: DMEM high glucose without glutamine (Thermo Fisher 11960044), 10.7 mg/L Transferrin (Sigma T0665), 64 mg/L L-Ascorbic Acid (Sigma A890), 14 ug/L Sodium Selenite (Sigma S5261), 543 mg/L Sodium Bicarbonate (Research Products International 144558), 19.4 mg/L insulin (Sigma 19278), 100 ug/L bFGF (EMD Millipore GF003AF), 2 ug/L TGFβ1 (Peprotech 10021), and 2 mM L-glutamine. After 24 hrs of culture in modified E8 medium, medium was changed to modified E8 medium containing 2 mM or 0 mM L-glutamine for 24 hrs. All cells were then changed to modified E8 medium containing 2 mM L-glutamine and cultured for 24 hrs before harvest for analysis. […] For ESC colony formation assays, colonies were scored manually in a blinded fashion. For reprogramming experiments, alkaline-phosphatase colonies were scored automatically using ImageJ (NIH). Briefly, images of each well were binarized using the Default function and particles greater than 8 pixels with a circularity of 0.7-1.0 were counted.

ESCs [2] = assay: Glutamine deprivation: growth curves, viability and colony formation; conditions: DM-αKG 4 mM
Procedure: For glutamine deprivation experiments in mouse ESCs, cells were initially plated in standard S/L medium as described above. The following day, cells were washed with PBS and then cultured in experimental medium containing a 1:1 mix of glutamine-free DMEM (Gibco 11960-051) and glutamine-free Neurobasal medium (Gibco 21103-049) including 10% dialyzed FBS, 2-mercaptoethanol, and LIF as described above and containing (“+Q”) or lacking (“−Q”) L-glutamine (2 mM) as indicated. When indicated, dimethyl-α-ketoglutarate (Sigma 349631) dissolved in DMSO was added to a final concentration of 4 mM. […]
ESCs were seeded at a density of 30,000-40,000 cells per well of a 12-well plate. The following day, three wells of each line were counted to determine the starting cell number. […] Cells were counted on the indicated days thereafter using a Beckman Multisizer 4e with a cell volume gate of 400-10,000 fL. […]
Evaluation of cell viability and Nanog-GFP expression. […] Cells were evaluated for GFP and DAPI on either a LSRFortessa or LSR-II machine and FACSDiva software ([…] Dickinson). […] Nanog-GFP expression was measured by GFP mean fluorescence intensity and quantified using FlowJo v9.0. […]

Nanog-GFP ESCs = assay: Nanog-GFP expression by flow cytometry after pulse treatment; conditions: 24 h pulse in glutamine-containing S/L medium, 24 h recovery; FIG. 7E-7F
Procedure: For transient glutamine withdrawal (“pulse”) experiments, cells were initially plated in standard S/L medium as described above. The following day, cells were washed with PBS and then changed to experimental medium containing a 1:1 mix of glutamine-free DMEM and glutamine-free Neurobasal medium including 10% dialyzed FBS, 2-mercaptoethanol, LIF, and containing (“Ctrl”) or lacking (“Pulse”) L-glutamine as indicated. 24 hours later, cells were washed with PBS and then returned to glutamine-replete medium (“Recover”). 24 hours later, cells were subjected to either image analysis, flow cytometry, or plated for colony formation assays as indicated. For glutamine pulse experiments in human ESCs, cells were initially plated at a density of 300,000 cells/well in a tissue-culture treated polystyrene 12-well plate coated with vitronectin (Thermo Fisher Scientific, A14700) in E8 medium (Thermo Fisher Scientific, A1517001) containing 10 uM ROCK inhibitor Y-27632 (Selleck Chemicals S1049). […] Cells were evaluated for GFP and DAPI on either a LSRFortessa or LSR-II machine and FACSDiva software ([…] Dickinson). […] Nanog-GFP expression was measured by GFP mean fluorescence intensity and quantified using FlowJo v9.0. […]

COC(=O)CCC(=O)C(=O)OC [cell-permeable αKG, dimethyl-α-ketoglutarate]
benefit of the glutamine withdrawal pulse on self-renewal (colony formation) (ESCs [1]; 4 mM DM-αKG added during 24 h glutamine withdrawal, FIG. 3H): abrogated the benefit of the pulse | self-renewal capacity of the ESC population after pulsed treatment (colony formation) (ESCs [1]; 24 h pulse, 24 h recovery before plating, FIG. 3G, 7G): no durable effect | survival and proliferation in the absence of glutamine (population doublings) (ESCs [2]; 48 h glutamine-free medium, FIG. 2G, 2H): capable of rescuing survival and proliferation in the absence of glutamine | proliferation, viability and self-renewal of ESCs under glutamine withdrawal (ESCs [2]; S/L culture, FIG. 2A, 6A-6B): sufficient to compensate for glutamine withdrawal | Nanog-GFP expression after pulsed treatment (Nanog-GFP ESCs): transiently increase Nanog-GFP expression
